Molecular target: T1, human SLC6A19 (Homo sapiens, UniProt Q695T7)
T1 construct: expressed in transfected cells
T1 sequence (Q695T7 1-634): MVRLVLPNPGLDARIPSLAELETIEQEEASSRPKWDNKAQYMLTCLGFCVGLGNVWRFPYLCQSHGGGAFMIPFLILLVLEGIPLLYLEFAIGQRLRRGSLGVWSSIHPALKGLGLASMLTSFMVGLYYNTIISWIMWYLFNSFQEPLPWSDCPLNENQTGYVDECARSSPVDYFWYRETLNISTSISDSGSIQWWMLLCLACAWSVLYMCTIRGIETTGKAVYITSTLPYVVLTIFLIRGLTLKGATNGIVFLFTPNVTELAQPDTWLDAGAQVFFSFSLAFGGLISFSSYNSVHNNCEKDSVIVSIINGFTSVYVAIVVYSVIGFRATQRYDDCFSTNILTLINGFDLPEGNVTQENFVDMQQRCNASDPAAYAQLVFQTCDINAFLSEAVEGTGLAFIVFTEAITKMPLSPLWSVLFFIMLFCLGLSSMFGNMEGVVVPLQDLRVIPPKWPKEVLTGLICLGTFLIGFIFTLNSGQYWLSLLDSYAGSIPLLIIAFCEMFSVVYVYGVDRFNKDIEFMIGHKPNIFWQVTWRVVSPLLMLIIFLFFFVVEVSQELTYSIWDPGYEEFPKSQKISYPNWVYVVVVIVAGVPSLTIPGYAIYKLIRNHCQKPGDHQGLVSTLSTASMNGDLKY
T1 sequence (Q9HBJ8 15-222 partner): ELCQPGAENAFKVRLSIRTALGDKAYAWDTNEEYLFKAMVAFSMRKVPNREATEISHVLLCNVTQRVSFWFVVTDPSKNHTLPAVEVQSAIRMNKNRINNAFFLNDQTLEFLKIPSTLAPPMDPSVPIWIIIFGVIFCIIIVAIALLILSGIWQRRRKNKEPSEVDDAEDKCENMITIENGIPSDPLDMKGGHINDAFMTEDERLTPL
Assay: Example B2: 13C6,15N-isoleucine uptake, RapidFire mass spectrometry, in CHO cells with doxycycline-inducible expression of human SLC6A19 and TMEM27
Format: cell-based
Details: read-out: SLC6A19_RapidFire Uptake Assay IC50
Procedure: Assay ready vials of CHO cells with doxycycline inducible expression of human SLC6A19 and TMEM27 were thawed, plated in T175 flasks containing DMEM/F12 media, 10% FBS, 100 Penicillin-Streptomycin, 1× UltraGlutamate, 1 mM Sodium Pyruvate, Sodium Bicarbonate (7.5 mL of 7.5% solution in 500 mL media final), […] Blasticidin, 150 µg/mL Hygromycin B Gold, and 500 µg/mL G418, and incubated (humidified, 37° C. with […]) for 48 hours. Media was then removed, flasks were washed with 20 mL of DPBS, and 5 mL of TryμLE™ Express was added to each flask to initiate cell dissociation. After 5 minutes, 10 mL of cell culture media was added to each flask and mixed. The cell suspension was collected and centrifuged for 5 minutes at 200×g. The supernatant was removed, and the pellet was resuspended in 10 mL of cell culture media. Resuspended cells were counted using a Vi-Cell. 30 μL/well (20,000 cells/well) of cell suspension was added to Poly-D-Lysine 384-well black/clear plates. Plates were incubated (humidified, 37° C. with 5% CO2) for 24 hours. To induce expression of human SLC6A19 and TMEM27, 10 μL of assay culture media containing 4 μg/mL doxycycline was added to each well. Assay plates were then incubated (humidified, 37° C. with 5% CO2) overnight. After incubation, the media was removed, and wells were washed 3 times with 40 μL of warmed DPBS. […] All compounds were plated in a duplicate 10-point dilution series that consisted of 2-fold dilutions. The plates were incubated (humidified, 37° C. with 5% CO2) with compound for 20 minutes. Afterwards, 20 μL/well of 2 mM 13C6,15N-1-isoleucine was added to each well and plates were incubated again (humidified, 37° C. with 5% CO2) for another 20 minutes. Assay buffer was then removed, and plates were washed. 70 μL/well of stop solution (75% acetonitrile, 25% HPLC grade water, 250 nM 1-leucine-1-13 C (RapidFire standard)) was added to each well. The plates were sealed and then placed in a −20° C. freezer for 20 minutes. The plates were thawed at room temperature for 20 minutes and then centrifuge for 20 minutes at 3000 rpm. Using an ABSciex API4000 mass spectrometer, processed samples were loaded onto the graphitic carbon SPE-column. The time for aspiration, load/wash, elution and re-equilibration time was 600, 1500, 3000 and 500 milliseconds, respectively. Peak areas were calculated using RapidFire Integrator software.

| SMILES | IC50 [nM] |
| --- | --- |
| CC(=O)N1CCC[C@@H](N(C)C(=O)NCc2cc3cc(F)c(F)cc3[nH]2)C1 [Compound 156, (R)-1-(1-acetylpiperidin-3-yl)-3-((5,6-difluoro-1H-indol-2-yl)methyl)-1-methylurea] | 282 |
| CN(C(=O)NCc1cc2cc(Cl)ccc2[nH]1)[C@@H]1CCCN(C(=O)C2(CO)CCC2)C1 [Compound 122, (R)-3-((5-chloro-1H-indol-2-yl)methyl)-1-(1-(1-(hydroxymethyl)cyclobutane-1-carbonyl)piperidin-3-yl)-1-methylurea] | 8600 |
| CC(=O)N1CCC[C@@H](N(C)C(=O)NCc2cc3cc(Cl)c(OCc4cncs4)cc3[nH]2)C1 [Compound 140, (R)-1-(1-acetylpiperidin-3-yl)-3-((5-chloro-6-(thiazol-5-ylmethoxy)-1H-indol-2-yl)methyl)-1-methylurea] | 1240 |
| CN(C(=O)NCc1cc2cc(Cl)ccc2[nH]1)[C@@H]1CCCN(C(=O)CC(F)(F)F)C1 [Compound 8, (R)-3-((5-chloro-1H-indol-2-yl)methyl)-1-methyl-1-(1-(3,3,3-trifluoropropanoyl)piperidin-3-yl)urea] | 491 |
| CC(=O)N1CCC(C(=O)N2CCC[C@@H](N(C)C(=O)NCc3cc4cc(Cl)ccc4[nH]3)C2)C1 (stereo partly drawn) [Compound 185, 1-((3R)-1-(1-acetylpyrrolidine-3-carbonyl)piperidin-3-yl)-3-((5-chloro-1H-indol-2-yl)methyl)-1-methylurea] | 4400 |
| CC(=O)N1CCC[C@@H](N(C)C(=O)NCc2[nH]c3ccc(Cl)cc3c2C)C1 [Compound 229, (R)-1-(1-acetylpiperidin-3-yl)-3-((5-chloro-3-methyl-1H-indol-2-yl)methyl)-1-methylurea] | 108 |
| COCC(N)C(=O)N1CCC[C@@H](N(C)C(=O)NCc2cc3cc(Cl)ccc3[nH]2)C1 (stereo partly drawn) [Compound 132, 3-((5-chloro-1H-indol-2-yl)methyl)-1-methyl-1-((3R)-1-(O-methylseryl)piperidin-3-yl)urea] | > 31000 |
| CN(C(=O)NCc1cc2cc(Cl)ccc2[nH]1)[C@@H]1CCCN(C(=O)C2(F)CCC2)C1 [Compound 127, (R)-3-((5-chloro-1H-indol-2-yl)methyl)-1-(1-(1-fluorocyclobutane-1-carbonyl)piperidin-3-yl)-1-methylurea] | 679 |
| CN(C(=O)NCc1cc2cc(Cl)ccc2[nH]1)[C@@H]1CCCN(C(=O)c2ccc3ocnc3c2)C1 [Compound 72, (R)-1-(1-(benzo[d]oxazole-5-carbonyl)piperidin-3-yl)-3-((5-chloro-1H-indol-2-yl)methyl)-1-methylurea] | 1370 |
| CC(=O)N1CCC[C@@H](N(C)C(=O)NCc2ccc3c(C)c(C)[nH]c3c2)C1 [Compound 225, (R)-1-(1-acetylpiperidin-3-yl)-3-((2,3-dimethyl-1H-indol-6-yl)methyl)-1-methylurea] | 2960 |
| CCN(C(=O)NCc1cc2ccc(OCc3ccon3)cc2[nH]1)[C@@H]1CCCN(C(C)=O)C1 [Compound 139, (R)-1-(1-acetylpiperidin-3-yl)-1-ethyl-3-((6-(isoxazol-3-ylmethoxy)-1H-indol-2-yl)methyl)urea] | 517 |
| CC(=O)NCCC(=O)N1CCC[C@@H](N(C)C(=O)NCc2cc3cc(Cl)ccc3[nH]2)C1 [Compound 89, (R)-N-(3-(3-(3-((5-chloro-1H-indol-2-yl)methyl)-1-methylureido)piperidin-1-yl)-3-oxopropyl)acetamide] | 1080 |
| CN(C(=O)NCc1cc2cc(Cl)ccc2[nH]1)[C@@H]1CCCN(C(=O)c2cn[nH]c2)C1 [Compound 11, (R)-1-(1-(1H-pyrazole-4-carbonyl)piperidin-3-yl)-3-((5-chloro-1H-indol-2-yl)methyl)-1-methylurea] | 743 |
| CN(C(=O)NCc1cc2cc(Cl)ccc2[nH]1)[C@@H]1CCCN(C(=O)Cc2ccccn2)C1 [Compound 68, (R)-3-((5-chloro-1H-indol-2-yl)methyl)-1-methyl-1-(1-(2-(pyridin-2-yl)acetyl)piperidin-3-yl)urea] | 417 |
| CN(C(=O)NCc1cc2cc(Cl)ccc2[nH]1)[C@@H]1CCCN(C(=O)N2CCC2)C1 [Compound 173, (R)-1-(1-(azetidine-1-carbonyl)piperidin-3-yl)-3-((5-chloro-1H-indol-2-yl)methyl)-1-methylurea] | 314 |
| COCC1(C(=O)N2CCC[C@@H](N(C)C(=O)NCc3cc4cc(Cl)ccc4[nH]3)C2)CC1 [Compound 92, (R)-3-((5-chloro-1H-indol-2-yl)methyl)-1-(1-(1-(methoxymethyl)cyclopropane-1-carbonyl)piperidin-3-yl)-1-methylurea] | 8990 |
| CN(C(=O)NCc1cc2cc(Cl)ccc2[nH]1)[C@@H]1CCCN(C(=O)c2cc(CO)on2)C1 [Compound 47, (R)-3-((5-chloro-1H-indol-2-yl)methyl)-1-(1-(5-(hydroxymethyl)isoxazole-3-carbonyl)piperidin-3-yl)-1-methylurea] | 2460 |
| CC(=O)N1CCC[C@@H](N(C)C(=O)NCc2cc3cc(C#N)ccc3[nH]2)C1 [Compound 228, (R)-1-(1-acetylpiperidin-3-yl)-3-((5-cyano-1H-indol-2-yl)methyl)-1-methylurea] | 2210 |
| CN(C(=O)NCc1cc2cc(Cl)ccc2[nH]1)[C@@H]1CCCN(C(=O)[C@H]2C[C@H](O)C2)C1 [Compound 64, trans-(R)-3-((5-chloro-1H-indol-2-yl)methyl)-1-(1-(3-hydroxycyclobutane-1-carbonyl)piperidin-3-yl)-1-methylurea] | 651 |
| C[C@H](O)C(=O)N1CCC[C@@H](N(C)C(=O)NCc2cc3cc(Cl)ccc3[nH]2)C1 [Compound 183, 3-((5-chloro-1H-indol-2-yl)methyl)-1-((R)-1-((S)-2-hydroxypropanoyl)piperidin-3-yl)-1-methylurea] | 852 |
| CN(C(=O)NCc1cc2cc(Cl)ccc2[nH]1)[C@@H]1CCCN(C(=O)C2CCCCO2)C1 (stereo partly drawn) [Compound 93, 3-((5-chloro-1H-indol-2-yl)methyl)-1-methyl-1-((3R)-1-(tetrahydro-2H-pyran-2-carbonyl)piperidin-3-yl)urea] | 1630 |
| CN(C(=O)NCc1cc2cc(Cl)ccc2[nH]1)[C@@H]1CCCN(C(=O)c2ccon2)C1 [Compound 5, (R)-3-((5-chloro-1H-indol-2-yl)methyl)-1-(1-(isoxazole-3-carbonyl)piperidin-3-yl)-1-methylurea] | 578 |
| CN1CC(C(=O)N2CCC[C@@H](N(C)C(=O)NCc3cc4cc(Cl)ccc4[nH]3)C2)C1 [Compound 129, (R)-3-((5-chloro-1H-indol-2-yl)methyl)-1-methyl-1-(1-(1-methylazetidine-3-carbonyl)piperidin-3-yl)urea] | > 31800 |
| CC(=O)N1CCC[C@@H](N(C)C(=O)NCc2cc3cc(C)cc(CO)c3[nH]2)C1 [Compound 175, (R)-1-(1-acetylpiperidin-3-yl)-3-((7-(hydroxymethyl)-5-methyl-1H-indol-2-yl)methyl)-1-methylurea] | 20900 |
| CCN(C(=O)NCc1cc2cc(Cl)c(F)cc2[nH]1)[C@@H]1CCCN(C(C)=O)C1 [Compound 170, (R)-1-(1-acetylpiperidin-3-yl)-3-((5-chloro-6-fluoro-1H-indol-2-yl)methyl)-1-ethylurea] | 45.1 |

Source: patent publication US20260184693A1, “INHIBITORS OF SOLUTE CARRIER FAMILY 6A MEMBER 19 (SLC6A19) AND METHODS OF USE THEREOF” (Maze Therapeutics, Inc., priority 2022, published 2026)
